Measured values published in PubChem BioAssay (NCI).
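Each compound was tested at five concentrations against cells in 96-well plates for 48 hours. TGI marks complete inhibition of growth.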

Assays:
Experiment in all cases: NCI tumour cell line growth inhibition, 48 h
BT-549 breast = test system: BT-549 breast
SNB-75 CNS = test system: SNB-75 CNS
HL-60(TB) leukemia = test system: HL-60(TB) leukemia
SK-MEL-2 melanoma = test system: SK-MEL-2 melanoma
IGROV1 ovarian = test system: IGROV1 ovarian
KM12 colon = test system: KM12 colon
SK-OV-3 ovarian = test system: SK-OV-3 ovarian
HCT-116 colon = test system: HCT-116 colon
MCF7 breast = test system: MCF7 breast
NCI-H460 lung = test system: NCI-H460 lung
NCI-H23 lung = test system: NCI-H23 lung
SF-268 CNS = test system: SF-268 CNS
UACC-62 melanoma = test system: UACC-62 melanoma
SK-MEL-28 melanoma = test system: SK-MEL-28 melanoma
NCI-H522 lung = test system: NCI-H522 lung
SF-295 CNS = test system: SF-295 CNS
DU-145 prostate = test system: DU-145 prostate
COLO 205 colon = test system: COLO 205 colon
CAKI-1 renal = test system: CAKI-1 renal
HOP-62 NSCLC = test system: HOP-62 NSCLC
RPMI-8226 leukemia = test system: RPMI-8226 leukemia
OVCAR-5 ovarian = test system: OVCAR-5 ovarian
OVCAR-8 ovarian = test system: OVCAR-8 ovarian
HS 578T breast = test system: HS 578T breast
MDA-N = test system: MDA-N
M14 melanoma = test system: M14 melanoma
UO-31 renal = test system: UO-31 renal
OVCAR-3 ovarian = test system: OVCAR-3 ovarian
786-0 renal = test system: 786-0 renal
K-562 leukemia = test system: K-562 leukemia
SNB-19 CNS = test system: SNB-19 CNS
MOLT-4 leukemia = test system: MOLT-4 leukemia
HCC-2998 colon = test system: HCC-2998 colon
ACHN renal = test system: ACHN renal
NCI/ADR-RES ovarian = test system: NCI/ADR-RES ovarian
LOX IMVI melanoma = test system: LOX IMVI melanoma
SN12C renal = test system: SN12C renal
HT29 colon = test system: HT29 colon
PC-3 prostate = test system: PC-3 prostate
SW-620 colon = test system: SW-620 colon
SR leukemia = test system: SR leukemia
MDA-MB-435 = test system: MDA-MB-435
HCT-15 colon = test system: HCT-15 colon
EKVX NSCLC = test system: EKVX NSCLC
RXF 393 renal = test system: RXF 393 renal
A498 renal = test system: A498 renal
SF-539 CNS = test system: SF-539 CNS
SK-MEL-5 melanoma = test system: SK-MEL-5 melanoma
HOP-92 NSCLC = test system: HOP-92 NSCLC
NCI-H226 lung = test system: NCI-H226 lung
CCRF-CEM leukemia = test system: CCRF-CEM leukemia
T-47D breast = test system: T-47D breast
MALME-3M melanoma = test system: MALME-3M melanoma
OVCAR-4 ovarian = test system: OVCAR-4 ovarian
UACC-257 melanoma = test system: UACC-257 melanoma
A549 NSCLC = test system: A549 NSCLC
TK-10 renal = test system: TK-10 renal
U251 CNS = test system: U251 CNS
MDA-MB-231 breast = test system: MDA-MB-231 breast

Measured: TGI

CCOc1cc(NC(C)=O)ccc1C(=O)NN1C(=O)/C(=C/c2ccco2)N=C1c1ccccc1
not listed: TK-10 renal | U251 CNS | MDA-MB-231 breast
> 100 µM: all other assays above

O=C(Nc1ccn(C2CC(O)C(CO)O2)c(=O)n1)c1ccccc1 (centres undefined)
not listed: UO-31 renal | HCC-2998 colon | SR leukemia | RXF 393 renal | HOP-92 NSCLC | MALME-3M melanoma
> 100 µM: all other assays above
